Drawing on PubChem BioAssay (NCI), this text covers GI50 and TGI for 9 compounds.

What all share (assay): inhibition of tumour cell growth, NCI panel, 48 h
Assay [1] has as its system IGROV1 ovarian.
In assay [2] the test system is KM12 colon.
Assay [3] has as its system NCI-H23 lung.
Assay [4] has as its system NCI-H460 lung.
Assay [5] concerns RPMI-8226 leukemia.
The subject of assay [6] is RXF 393 renal.
In assay [7] the test system is OVCAR-8 ovarian.
Assay [8] relates to M14 melanoma.
The test system of assay [9] is CCRF-CEM leukemia.
In assay [10] the test system is SF-268 CNS.

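Grown in 96-well plates, cells were treated for 48 hours with each compound at five concentrations. Insufficient inhibition: endpoint recorded as highest concentration tested. At the GI50, growth is halved. TGI denotes the concentration required for complete inhibition of growth.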

Take `N=c1ccn2c(n1)O[C@@H]1[C@@H](O)[C@H](CO)O[C@@H]12`: the GI50 was 11 µM in [1]; 27.3 µM in assay [2]; 1.09 µM in [3]; 0.446 µM in assay [4]; above 100 µM in [5]; 18.1 µM in assay [6]. Also, the GI50 was 0.428 µM in assay [8], 0.0773 µM in assay [9] and 4.8 µM in [10]. Also, the TGI in assay [1], in assay [2], in assay [3], in assay [4], in [5] and in assay [6] was above 100 µM each time. Moreover, the TGI in assay [7] was above 100 µM; in assay [8], 3.39 µM; in assay [9] it was above 100 µM; in assay [10] it was above 100 µM.
Consider `O=C1c2cccnc2C(=O)c2c1c(C(=O)OCCN1CCOCC1)c1ccccn21`, for which the GI50 was 0.0406 µM in assay [1]; 0.0725 µM in [2]; below 0.01 µM in assay [3]; below 0.01 µM in assay [4]; 0.0914 µM in [5]; below 0.0187 µM in [6]. The GI50 in [7] was below 0.0168 µM; in [8], below 0.01 µM; in assay [9], 0.126 µM; in assay [10], below 0.0136 µM. Also, the TGI amounted to 9.91 µM in assay [1]; 15.7 µM in assay [2]; 1.06 µM in assay [4]; 4.65 µM in assay [5]; 2.91 µM in assay [6]; 9.21 µM in assay [7]. Besides, the figures for the TGI in assay [8], in assay [9] and in assay [10] were 0.116 µM, 6.8 µM and 16.2 µM, respectively.
Consider `O=C(CCl)Nc1ccc2c(c1)C(=O)c1ccc(NC(=O)CCl)cc1C2=O`, for which the GI50 is 0.26 µM in assay [1]; 1.06 µM in assay [2]; 0.253 µM in assay [3]; 0.387 µM in assay [4]; 0.434 µM in assay [5]; 0.288 µM in assay [6]. The GI50 was 0.439 µM in [7], 0.236 µM in assay [8], 0.127 µM in assay [9] and 0.386 µM in assay [10]. The TGI came out at 1.15 µM in [1]; 2.42 µM in assay [2]; 0.834 µM in assay [3]; 1.53 µM in [4]; 2.23 µM in assay [5]; 0.928 µM in assay [6]. Further, the TGI was above 100 µM in [7], 0.781 µM in assay [8], 0.896 µM in assay [9] and 1.92 µM in assay [10].
As to `N#CC1=C(c2ccccc2)C(O)(c2ccccc2)NC1=O` (stereo not drawn), the TGI in [1], in assay [2], in [3], in [4], in [5] and in [6] was above 100 µM in each case. Moreover, the TGI in assay [7], in assay [8], in assay [9] and in assay [10] was above 100 µM each time.
In the case of `CN1CCCCC1CCN1c2ccccc2Sc2ccc(S(C)=O)cc21` (stereo not drawn), the TGI in assay [1], in assay [2], in assay [3], in assay [4], in assay [5] and in assay [6] was above 100 µM throughout. Besides, the TGI in assay [7], in assay [8], in assay [9] and in [10] was above 100 µM throughout.
For `CCN1CCN(C(=O)[C@]23CCC(C)(C)C[C@@H]2C2=CC[C@@H]4[C@@]5(C)C/C(=C/c6cccnc6)C(=O)C(C)(C)[C@@H]5CC[C@@]4(C)[C@]2(C)CC3)CC1`, the GI50 in [1] is 1.91 µM; in assay [2], 1.58 µM; in assay [3] it was 2.1 µM; in assay [4], 1.39 µM; in assay [5], 0.959 µM; in assay [6], 1.42 µM. Further, the GI50 is 2.14 µM in assay [7], 1.6 µM in assay [8], 2.1 µM in assay [9] and 1.59 µM in assay [10]. Also, the TGI stood at 4.16 µM in [1]; 3.26 µM in assay [2]; 5.85 µM in assay [3]; 2.93 µM in [4]; 5.13 µM in assay [5]; 2.77 µM in [6]. Further, the TGI in assay [7] turned out to be 5.54 µM; in [8], 3.15 µM; in assay [9], 9.02 µM; in assay [10] it was 4.79 µM.
Turning to `Cn1c(=S)sc2nc3ccccc3n2c1=S`, the TGI in assay [1] is 30.9 µM; in [2], 27.4 µM; in assay [3], 30.7 µM; in [4] it was 27.9 µM; in assay [5] it was 88.1 µM; in assay [6] it was 27.4 µM. For the same compound, the TGI in [7] was 30.1 µM; in assay [8] it was 18.7 µM; in [9] it was 43.7 µM; in [10], 24.7 µM.
Consider `O=C(O)/C=C\C(=O)Nc1ccc2c(c1)C(=O)c1cc(F)ccc1-2`, for which the TGI in assay [1], in assay [2], in [3], in assay [4], in assay [5] and in [6] was above 100 µM throughout. In addition, the TGI in [7], in [8], in assay [9] and in assay [10] was above 100 µM throughout.
`C[C@@]1(N2C(=O)OC[C@@H]2c2ccccc2)C(=O)N([C@H](CC(=O)N2CCC(N3CCCCC3)CC2)C(=O)NCc2cccc(C(F)(F)F)c2)[C@@H]1/C=C/c1ccccc1`: the GI50 in [1] was 2.73 µM; in [2] it was 2.42 µM; in assay [3], 4.12 µM; in assay [4], 2 µM; in [5] it was 2.59 µM; in [6], 2.1 µM. In addition, the GI50 is 2.77 µM in assay [7], 1.93 µM in [8], 2.97 µM in [9] and 1.76 µM in assay [10]. In addition, the TGI came out at 8.49 µM in assay [1]; 6.21 µM in assay [2]; 16.7 µM in [3]; 3.86 µM in assay [4]; 6.38 µM in [5]; 4.51 µM in assay [6]. Moreover, the TGI came to 7.24 µM in assay [7], 3.6 µM in [8], 7.07 µM in [9] and 3.94 µM in [10].
